Assay results from patent publication US10214519B2, “Phosphatidylinositol 3-kinase inhibitors” (Gilead Sciences, Inc., priority 2016, dated 2019).

Biological target: PI3Kβ (Homo sapiens (Human), UniProt P42338)
Assay: PI3K isoform TR-FRET enzymatic assay (PI3Kβ)
Assay type: biochemical
Settings: 2× Km ATP, 30 minutes at 25° C.
Experimental: The compounds of formula (I) were characterized for their enzymatic activity against the PI3K isoforms. The activities were measured using a time-resolved fluorescence resonance energy transfer (TR-FRET) assay. TR-FRET monitored the formation of 3,4,5-inositol triphosphate molecule that competed with fluorescently labeled PIP3 for binding to the GRP-1 pleckstrin homology domain protein.
Class I PI3K isoforms were expressed and purified as heterodimeric recombinant proteins. All assay reagents and buffers for the TR-FRET assay were purchased from Millipore. […] The compounds were added to the assay solution and incubated for 30 minutes at 25° C. The reactions were terminated with a final concentration of 10 mM EDTA, 10 nM labeled-PIP3, and 35 nM Europium labeled GRP-1 detector protein before reading TR-FRET on an Envision plate reader (Ex: 340 nm; Em: 615/665 nm; 100 μs delay and 500 μs read window).
The results were normalized based on positive (1 μM wortmanin) and negative (DMSO) controls, and the IC50 values for PI3K α, β, δ, and γ were calculated from the fit of the dose-response curves to a four-parameter equation.

PI3Kβ, sequence (P42338 whole entry, canonical isoform): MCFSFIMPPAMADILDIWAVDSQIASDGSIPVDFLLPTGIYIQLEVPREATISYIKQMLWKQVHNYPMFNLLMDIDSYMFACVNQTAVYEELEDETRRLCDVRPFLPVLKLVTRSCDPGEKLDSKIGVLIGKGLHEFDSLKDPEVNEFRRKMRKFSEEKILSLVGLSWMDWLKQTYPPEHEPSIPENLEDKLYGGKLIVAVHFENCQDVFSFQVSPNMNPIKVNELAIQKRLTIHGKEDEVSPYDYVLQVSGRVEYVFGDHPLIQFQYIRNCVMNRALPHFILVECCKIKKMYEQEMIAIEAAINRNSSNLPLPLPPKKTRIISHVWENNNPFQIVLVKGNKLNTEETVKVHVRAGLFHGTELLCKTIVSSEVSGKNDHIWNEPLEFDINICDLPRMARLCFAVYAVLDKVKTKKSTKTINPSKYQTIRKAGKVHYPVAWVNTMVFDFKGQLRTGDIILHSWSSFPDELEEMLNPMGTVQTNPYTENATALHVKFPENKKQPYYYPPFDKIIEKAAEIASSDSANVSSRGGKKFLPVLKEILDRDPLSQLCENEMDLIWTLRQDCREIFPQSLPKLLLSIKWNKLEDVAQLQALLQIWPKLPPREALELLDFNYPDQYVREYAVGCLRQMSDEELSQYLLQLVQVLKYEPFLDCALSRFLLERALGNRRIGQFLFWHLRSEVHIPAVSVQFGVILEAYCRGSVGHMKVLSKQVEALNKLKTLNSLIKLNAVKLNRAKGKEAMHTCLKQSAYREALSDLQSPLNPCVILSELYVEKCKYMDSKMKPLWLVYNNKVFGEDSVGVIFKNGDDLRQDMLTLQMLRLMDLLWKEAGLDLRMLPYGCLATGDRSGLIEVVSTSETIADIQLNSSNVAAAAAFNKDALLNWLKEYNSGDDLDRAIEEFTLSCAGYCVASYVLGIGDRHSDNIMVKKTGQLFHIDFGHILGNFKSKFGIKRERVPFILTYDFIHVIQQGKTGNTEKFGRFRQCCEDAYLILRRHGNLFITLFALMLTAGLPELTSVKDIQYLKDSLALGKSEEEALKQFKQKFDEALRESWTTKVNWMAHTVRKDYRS
PI3Kβ, sequence (P27986 whole entry partner, canonical isoform): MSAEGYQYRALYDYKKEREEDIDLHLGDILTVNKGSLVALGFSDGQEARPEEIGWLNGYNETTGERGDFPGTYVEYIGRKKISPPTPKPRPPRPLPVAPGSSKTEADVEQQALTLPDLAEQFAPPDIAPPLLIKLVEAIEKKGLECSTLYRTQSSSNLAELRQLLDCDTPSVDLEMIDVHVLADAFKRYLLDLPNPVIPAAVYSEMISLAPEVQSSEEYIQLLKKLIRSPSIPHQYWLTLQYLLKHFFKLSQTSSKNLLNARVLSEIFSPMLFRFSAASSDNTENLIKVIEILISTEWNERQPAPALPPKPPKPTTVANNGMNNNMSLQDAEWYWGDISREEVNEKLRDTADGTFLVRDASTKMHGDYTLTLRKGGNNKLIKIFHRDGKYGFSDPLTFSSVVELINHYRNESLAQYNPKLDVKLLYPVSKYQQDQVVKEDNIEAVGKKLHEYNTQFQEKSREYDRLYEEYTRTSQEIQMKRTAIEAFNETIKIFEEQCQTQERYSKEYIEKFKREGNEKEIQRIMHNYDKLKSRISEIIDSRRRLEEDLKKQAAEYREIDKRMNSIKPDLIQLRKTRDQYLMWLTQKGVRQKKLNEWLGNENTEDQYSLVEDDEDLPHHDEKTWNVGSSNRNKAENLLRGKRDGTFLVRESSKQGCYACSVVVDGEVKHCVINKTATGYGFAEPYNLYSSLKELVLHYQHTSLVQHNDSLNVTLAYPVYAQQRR

Row | Compound | IC50 [nM]
1 | CCc1nc2c(-c3ncc[nH]3)cc(N3CCOCC3)cc2n1-c1ccnc2c(F)ccc(F)c12 (atropisomer, axis not shown) [Compound 370, 4-(1-(5,8-difluoroquinolin-4-yl)-2-ethyl-4-(1H-imidazol-2-yl)-1H-benzo[d]imidazol-6-yl)morpholine] | 13
2 | CCc1nc2c(-c3ncc[nH]3)cc(N3CCOCC3)cc2n1-c1ccnc2c(F)ccc(F)c12 (atropisomer, axis not shown) [Compound 371, 4-(1-(5,8-difluoroquinolin-4-yl)-2-ethyl-4-(1H-imidazol-2-yl)-1H-benzo[d]imidazol-6-yl)morpholine] | 6800
3 | Cc1nc2c(-c3cnc(Cl)[nH]3)cc(N3CCOCC3)cc2n1-c1ccnc2c(F)ccc(F)c12 (atropisomer, axis not shown) [Compound 372, 4-(4-(2-chloro-1H-imidazol-5-yl)-1-(5,8-difluoroquinolin-4-yl)-2-methyl-1H-benzo[d]imidazol-6-yl)morpholine] | 6
4 | Cc1nc2c(-c3cnc(Cl)[nH]3)cc(N3CCOCC3)cc2n1-c1ccnc2c(F)ccc(F)c12 (atropisomer, axis not shown) [Compound 373, 4-(4-(2-chloro-1H-imidazol-5-yl)-1-(5,8-difluoroquinolin-4-yl)-2-methyl-1H-benzo[d]imidazol-6-yl)morpholine] | 1000
5 | Cc1cnc2c(C#N)cccc2c1-n1c(C)nc2c(-c3nnc[nH]3)cc(N3CCOCC3)cc21 (atropisomer, axis not shown) [Compound 374, 3-methyl-4-(2-methyl-6-morpholino-4-(4H-1,2,4-triazol-3-yl)-1H-benzo[d]imidazol-1-yl)quinoline-8-carbonitrile] | 22
6 | Cc1cnc2c(C#N)cccc2c1-n1c(C)nc2c(-c3nnc[nH]3)cc(N3CCOCC3)cc21 (atropisomer, axis not shown) [Compound 375, 3-methyl-4-(2-methyl-6-morpholino-4-(4H-1,2,4-triazol-3-yl)-1H-benzo[d]imidazol-1-yl)quinoline-8-carbonitrile] | 7100
7 | CCCc1nc2c(-c3nnc[nH]3)cc(N3CCOCC3)cc2n1-c1ccnc2c(Cl)cccc12 [Compound 1, 4-(1-(8-chloroquinolin-4-yl)-2-propyl-4-(4H-1,2,4-triazol-3-yl)-1H-benzo[d]imidazol-6-yl)morpholine 2,2,2-trifluoroacetate] | 4
8 | N#Cc1ncc(-c2cc(N3CCOCC3)cc3c2ncn3-c2ccnc3c(F)ccc(F)c23)[nH]1 [Compound 394, 5-(1-(5,8-Difluoroquinolin-4-yl)-6-morpholino-1H-benzo[d]imidazol-4-yl)-1H-imidazole-2-carbonitrile] | 860
9 | Cc1nnc(-c2cc(N3CCOCC3)cc3c2nc(CC(C)C)n3-c2ccnc3c(Cl)cccc23)[nH]1 [Example 2, 4-(1-(8-chloroquinolin-4-yl)-2-isobutyl-4-(5-methyl-4H-1,2,4-triazol-3-yl)-1H-benzo[d]imidazol-6-yl)morpholine] | 24
10 | CCCc1nc2c(-c3nnc(C)[nH]3)cc(N3CCOCC3)cc2n1-c1ccnc2c(F)ccc(F)c12 [Example 3, 4-(1-(5,8-difluoroquinolin-4-yl)-4-(5-methyl-4H-1,2,4-triazol-3-yl)-2-propyl-1H-benzo[d]imidazol-6-yl)morpholine] | 24
11 | CC1(c2nc3c(-c4nnc[nH]4)cc(N4CCOCC4)cc3n2-c2ccnc3c(Cl)cccc23)CC1 [Example 4, 4-(1-(8-chloroquinolin-4-yl)-2-(1-methylcyclopropyl)-4-(4H-1,2,4-triazol-3-yl)-1H-benzo[d]imidazol-6-yl)morpholine] | 28
12 | CCc1nc2c(-c3nnc[nH]3)cc(N3CCOCC3)cc2n1-c1ccnc2c(F)ccc(Cl)c12 [Example 5, 4-(1-(5-chloro-8-fluoroquinolin-4-yl)-2-ethyl-4-(4H-1,2,4-triazol-3-yl)-1H-benzo[d]imidazol-6-yl)morpholine] | 29
13 | c1ccc(-c2nc3c(-c4nnc[nH]4)cc(N4CCOCC4)cc3n2-c2ccnc3ccccc23)nc1 [Example 6, 4-(2-(pyridin-2-yl)-1-(quinolin-4-yl)-4-(4H-1,2,4-triazol-3-yl)-1H-benzo[d]imidazol-6-yl)morpholine] | 31
14 | CCCc1nc2c(-c3nnc[nH]3)cc(N3CCOCC3)cc2n1-c1ccnc2cc(F)ccc12 [Example 7, 4-(1-(7-fluoroquinolin-4-yl)-2-propyl-4-(4H-1,2,4-triazol-3-yl)-1H-benzo[d]imidazol-6-yl)morpholine] | 31
15 | Cc1nnc(-c2cc(N3CCOCC3)cc3c2nc(CC2CC2)n3-c2ccnc3c(Cl)cccc23)[nH]1 [Example 8, 4-(1-(8-chloroquinolin-4-yl)-2-(cyclopropylmethyl)-4-(5-methyl-4H-1,2,4-triazol-3-yl)-1H-benzo[d]imidazol-6-yl)morpholine] | 32

Results, then the compound that gave them:

Row | IC50 [nM] | Compound
16 | 1900 | Cc1nc2c(-c3ncco3)cc(N3CCOCC3)cc2n1-c1ccnc2c(F)cccc12 (atropisomer, axis not shown) [Example 340, 4-[3-(8-fluoroquinolin-4-yl)-2-methyl-7-(1,3-oxazol-2-yl)benzimidazol-5-yl]morpholine]
17 | 6 | Cc1nc2c(-c3ncco3)cc(N3CCOCC3)cc2n1-c1ccnc2c(F)cccc12 (atropisomer, axis not shown) [Example 341, 4-[3-(8-fluoroquinolin-4-yl)-2-methyl-7-(1,3-oxazol-2-yl)benzimidazol-5-yl]morpholine]
18 | 33 | Clc1cccc2c(-n3c(C4CCOC4)nc4c(-c5nnc[nH]5)cc(N5CCOCC5)cc43)ccnc12 (stereo not drawn) [Example 9, 4-(1-(8-chloroquinolin-4-yl)-2-(tetrahydrofuran-3-yl)-4-(4H-1,2,4-triazol-3-yl)-1H-benzo[d]imidazol-6-yl)morpholine]
19 | 41 | Clc1cccc2c(-n3c(-c4cccnc4)nc4c(-c5nnc[nH]5)cc(N5CCOCC5)cc43)ccnc12 [Example 10, 4-(1-(8-chloroquinolin-4-yl)-2-(pyridin-3-yl)-4-(4H-1,2,4-triazol-3-yl)-1H-benzo[d]imidazol-6-yl)morpholine]
20 | 42 | CCCc1nc2c(-c3nnc(C)[nH]3)cc(N3CCOCC3)cc2n1-c1ccnc2c(Cl)ccc(F)c12 [Example 11, 4-(1-(8-chloro-5-fluoroquinolin-4-yl)-4-(5-methyl-4H-1,2,4-triazol-3-yl)-2-propyl-1H-benzo[d]imidazol-6-yl)morpholine]
21 | 43 | COC(C)c1nc2c(-c3nnc[nH]3)cc(N3CCOCC3)cc2n1-c1ccnc2c(Cl)cccc12 (stereo not drawn) [Example 12, 4-(1-(8-chloroquinolin-4-yl)-2-(1-methoxyethyl)-4-(4H-1,2,4-triazol-3-yl)-1H-benzo[d]imidazol-6-yl)morpholine]
22 | 45 | Cc1nnc(-c2cc(N3CCOCC3)cc3c2nc(C2CCC2)n3-c2ccnc3c(Cl)cccc23)[nH]1 [Example 13, 4-(1-(8-chloroquinolin-4-yl)-2-cyclobutyl-4-(5-methyl-4H-1,2,4-triazol-3-yl)-1H-benzo[d]imidazol-6-yl)morpholine]
23 | 49 | Cc1nnc(-c2cc(N3CCOCC3)cc3c2nc(C(C)C)n3-c2ccnc3c(Cl)cccc23)[nH]1 [Example 14, 4-(1-(8-chloroquinolin-4-yl)-2-isopropyl-4-(5-methyl-4H-1,2,4-triazol-3-yl)-1H-benzo[d]imidazol-6-yl)morpholine]
24 | 49 | Clc1cccc2c(-n3c(-c4ccncc4)nc4c(-c5nnc[nH]5)cc(N5CCOCC5)cc43)ccnc12 [Example 15, 4-(1-(8-chloroquinolin-4-yl)-2-(pyridin-4-yl)-4-(4H-1,2,4-triazol-3-yl)-1H-benzo[d]imidazol-6-yl)morpholine]
25 | 53 | Cc1nnc(-c2cc(N3CCOCC3)cc3c2nc(C2CCCO2)n3-c2ccnc3c(Cl)cccc23)[nH]1 (stereo not drawn) [Example 16, 4-(1-(8-chloroquinolin-4-yl)-4-(5-methyl-4H-1,2,4-triazol-3-yl)-2-(tetrahydrofuran-2-yl)-1H-benzo[d]imidazol-6-yl)morpholine]
26 | 60 | c1ccc2c(-n3c(C4CC4)nc4c(-c5nnc[nH]5)cc(N5CCOCC5)cc43)ccnc2c1 [Example 17, 4-(2-cyclopropyl-1-(quinolin-4-yl)-4-(4H-1,2,4-triazol-3-yl)-1H-benzo[d]imidazol-6-yl)morpholine]
27 | 63 | Cc1nnc(-c2cc(N3CCOCC3)cc3c2nc(C)n3-c2ccnc3c(Cl)cc(F)cc23)[nH]1 [Example 18, 4-(1-(8-chloro-6-fluoroquinolin-4-yl)-2-methyl-4-(5-methyl-4H-1,2,4-triazol-3-yl)-1H-benzo[d]imidazol-6-yl)morpholine]
28 | 110 | Cc1nnc(-c2cc(N3CCOCC3)cc3c2nc(C)n3-c2ccnc3ccccc23)[nH]1 [Example 19, 4-(2-methyl-4-(5-methyl-4H-1,2,4-triazol-3-yl)-1-(quinolin-4-yl)-1H-benzo[d]imidazol-6-yl)morpholine]
29 | 120 | CC(C)(C)c1nc2c(-c3nnc[nH]3)cc(N3CCOCC3)cc2n1-c1ccnc2c(Cl)cccc12 [Example 20, 4-(2-(tert-butyl)-1-(8-chloroquinolin-4-yl)-4-(4H-1,2,4-triazol-3-yl)-1H-benzo[d]imidazol-6-yl)morpholine]
30 | 130 | CCCc1nc2c(-c3nnc(C)[nH]3)cc(N3CCOCC3)cc2n1-c1ccnc2cc(F)ccc12 [Example 21, 4-(1-(7-fluoroquinolin-4-yl)-4-(5-methyl-4H-1,2,4-triazol-3-yl)-2-propyl-1H-benzo[d]imidazol-6-yl)morpholine]
